# From patent US8119681B2, “2-[1-phenyl-5-hydroxy or methoxy-4alpha-methyl-hexahydrocyclopenta [ƒ]indazole-5-YL]ethyl phenyl derivatives as glucocorticoid receptor ligands” (Merck Sharp & Dohme Corp., priority 2006, dated 2012)
# Like-named read-outs stand apart in the source and are kept apart here.
# Target: T1, human GR (Homo sapiens, UniProt P04150)
# T1 sequence (P04150 1-777): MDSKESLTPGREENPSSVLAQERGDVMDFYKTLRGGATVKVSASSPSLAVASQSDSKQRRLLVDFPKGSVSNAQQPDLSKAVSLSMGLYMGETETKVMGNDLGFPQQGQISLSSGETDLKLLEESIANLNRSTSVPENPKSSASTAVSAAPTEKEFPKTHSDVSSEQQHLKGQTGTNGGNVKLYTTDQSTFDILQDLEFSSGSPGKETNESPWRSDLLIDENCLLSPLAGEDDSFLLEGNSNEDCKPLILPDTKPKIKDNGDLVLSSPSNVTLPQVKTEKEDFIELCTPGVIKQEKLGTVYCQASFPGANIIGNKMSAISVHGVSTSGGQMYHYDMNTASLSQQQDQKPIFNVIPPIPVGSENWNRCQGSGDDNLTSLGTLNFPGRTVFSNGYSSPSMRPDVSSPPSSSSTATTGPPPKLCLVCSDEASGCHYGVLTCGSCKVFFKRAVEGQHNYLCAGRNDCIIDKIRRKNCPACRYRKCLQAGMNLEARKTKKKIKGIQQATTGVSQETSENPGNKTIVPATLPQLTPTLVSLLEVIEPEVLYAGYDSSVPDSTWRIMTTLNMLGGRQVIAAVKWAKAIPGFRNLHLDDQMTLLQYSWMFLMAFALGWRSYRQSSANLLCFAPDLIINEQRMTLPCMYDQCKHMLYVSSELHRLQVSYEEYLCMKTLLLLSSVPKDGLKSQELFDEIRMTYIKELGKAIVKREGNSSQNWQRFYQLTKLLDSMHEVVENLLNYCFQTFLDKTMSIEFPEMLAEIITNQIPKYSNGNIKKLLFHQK
# Test: Transrepression Assay (GITAR), TNFα-β-lactamase reporter gene in U937 cells
# Assay type: cell-based
# Parameters: U937 cells contain an endogenous glucocorticoid receptor (GR); endogenous in cells; host or cells: U937 cells stably transfected with the TNF-α promoter/β-lactamase reporter only
# Outline: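 Reporter readout used CCF2-AM loading for 70–90 min at room temperature after overnight (~18 h, 37 °C) PMA (5 ng/ml final) and LPS (100 ng/ml final) stimulation of compound-treated (30–45 min) TNFα-β-lactamase U937 cells expressing native GR. Activity was normalised to 100 nM dexamethasone repression.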
# [1] = U-937, 100 nM dexamethasone = 100% activity, read-out: maximal activity in the transrepression assay
Emax [1],SMILES,"Emax (U-937, read-out: maximal activity in the transrepression assay)"
5 to 100%,"C[C@]12Cc3cnn(-c4cccc(F)c4)c3C=C1CC[C@@]2(O)CCc1ccccc1C(N)=O [Example 187, 2-{2-[(4αS,5R)-1-(3-fluorophenyl)-5-hydroxy-4α-methyl-1,4,4α,5,6,7-hexahydrocyclopenta[f]indazol-5-yl]ethyl}benzamide]",
5 to 100%,"C[C@]12Cc3cnn(-c4ccc(F)cc4)c3C=C1CC[C@@]2(O)CCc1cccc(C(F)(F)F)c1C(N)=O [Example 188, 2-{2-[(4αS,5R)-1-(4-fluorophenyl)-5-hydroxy-4α-methyl-1,4,4α,5,6,7-hexahydrocyclopenta[f]indazol-5-yl]ethyl}-6-(trifluoromethyl)benzamide]",
5 to 100%,"C[C@]12Cc3cnn(-c4ccc(F)cc4)c3C=C1CC[C@@]2(O)CCc1ccc(-c2ccccc2)cc1C(N)=O [Example 190, 4-{2-[(4αS,5R)-1-(4-fluorophenyl)-5-hydroxy-4α-methyl-1,4,4α,5,6,7-hexahydrocyclopenta[f]indazol-5-yl]ethyl}biphenyl-3-carboxamide]",
5 to 100%,"C[C@]12Cc3cnn(-c4ccc(F)cc4)c3C=C1CC[C@@]2(O)CCc1ccccc1C(O)C(N)=O (stereo partly drawn) [Example 192, 2-(2-{2-[(4αS,5R)-1-(4-fluorophenyl)-5-hydroxy-4α-methyl-1,4,4α,5,6,7-hexahydrocyclopenta[f]indazol-5-yl]ethyl}phenyl)-2-hydroxyacetamide]",
5 to 100%,"C[C@]12Cc3cnn(-c4ccc(F)cc4)c3C=C1CC[C@@]2(O)CCc1cc(F)ccc1CC(N)=O [Example 193, 2-(4-fluoro-2-{2-[(4αS,5R)-1-(4-fluorophenyl)-5-hydroxy-4α-methyl-1,4,4α,5,6,7-hexahydrocyclopenta[f]indazol-5-yl]ethyl}phenyl)acetamide]",
5 to 100%,"C[C@]12Cc3cnn(-c4ccc(F)c(F)c4)c3C=C1CC[C@@]2(O)CCc1ccccc1CC(N)=O [Example 195, 2-(2-{2-[(4αS,5R)-1-(3,4-difluorophenyl)-5-hydroxy-4α-methyl-1,4,4α,5,6,7-hexahydrocyclopenta[f]indazol-5-yl]ethyl}phenyl)acetamide]",

# Further lines, the compound ahead of its results:
SMILES,Emax [1],"Emax (U-937, read-out: maximal activity in the transrepression assay)"
"C[C@]12Cc3cnn(-c4ccc(F)cc4)c3C=C1CC[C@@]2(O)CCc1ccc(F)c(F)c1C(N)=O [Example 183, 2,3-difluoro-6-{2-[(4αS,5R)-1-(4-fluorophenyl)-5-hydroxy-4α-methyl-1,4,4α,5,6,7-hexahydrocyclopenta[f]indazol-5-yl]ethyl}benzamide]",5 to 100%,
"C[C@]12Cc3cnn(-c4ccc(Cl)cc4)c3C=C1CC[C@@]2(O)CCc1ccccc1C(N)=O [Example 184, 2-{2-[(4αS,5R)-1-(4-chlorophenyl)-5-hydroxy-4α-methyl-1,4,4α,5,6,7-hexahydrocyclopenta[f]indazol-5-yl]ethyl}benzamide]",5 to 100%,
"Cc1cccc(CC[C@]2(O)CCC3=Cc4c(cnn4-c4ccc(F)c(F)c4)C[C@@]32C)c1C(N)=O [Example 186, 2-{2-[(4αS,5R)-1-(3,4-difluorophenyl)-5-hydroxy-4α-methyl-1,4,4α,5,6,7-hexahydrocyclopenta[f]indazol-5-yl]ethyl}-6-methylbenzamide]",5 to 100%,
"C[C@]12Cc3cnn(-c4ccc(F)cc4)c3C=C1CC[C@@]2(O)CCc1ccccc1C(O)(C(N)=O)C1CC1 (stereo partly drawn) [Example 200, 2-cyclopropyl-2-(2-{2-[(4αS,5R)-1-(4-fluorophenyl)-5-hydroxy-4α-methyl-1,4,4α,5,6,7-hexahydrocyclopenta[f]indazol-5-yl]ethyl}phenyl)-2-hydroxyacetamide]",,5 to 100%
